Test results as given in patent US4000297A, “N-p-chlorobenzoyl tryptophane, salts and compositions thereof” (priority 1971, dated 1976).
Counter-ions that a name gives are not always drawn. Like-named read-outs stand apart in the source and are kept apart here.

Experiments:
Solubility = assay type: physicochemical; conditions: for solubility / Solubility in water: water; for Solubility in water: in words
[1] = test system: transit through the stomach and intestine; assay: Anti-spastic activity, vegetable carbon (charcoal) test, rate of transit through the stomach and intestine; assay type: in vivo, mice; conditions: for ED50: Mus musculus, 2 h; for Antispastic activity ED50: 120 min; for Ratio 3/2: anti-secretive ED50 / anti-spastic ED50 (Table 3)
Protocol: Particularly marked is the anti-spastic activity which the present compounds exercise on the entire digestive system. Measured in the mouse, using the vegetable carbon test (rate of transit through the stomach and intestine), this activity is in some cases comparatively greater than the anti-secretive activity (Table 3).
(*)The antispastic activity is measured in mice of an average weight of […]
± 3 g by administering a suspension of charcoal in gum arabic and
checking after two hours whether the charcoal has reached the initial
portion of the colon. In non-treated subjects the charcoal reaches this
transit of the charcoal. Evaluation of the results is effected as
ED50 in mg/kg body weight of the animal, i.e., the dose at which the […]

[2] = test system: gastric lesions from Indomethacin; assay: Protective activity against gastric lesions due to Indomethacin; assay type: in vivo, rats; conditions: for ED50: Rattus norvegicus, po, 4 h, read-out: Protective activity ED50; for Protective activity ED50: 240 min
Protocol: The activity is defined as the dose in mg/kg of body weight to the animal, which prevents in 50% of the treated subjects arising of lesions due to Indomenthacin.
The protective preparations are administered orally in aqueous suspension.

gastric secretion [3] = assay: Comparison of antisecretive activity, rats with tied pylorus, oral aqueous suspension; assay type: in vivo; conditions: for ED50: Rattus norvegicus, po, read-out: Antisecretive activity (dose which reduces the gastric secretion by 50%)
Protocol: (*)The antisecretive activity is defined as the dose in mg/kg of body
weight of the animal, which reduces the gastric secretion by 50%. The
evaluation is effected by considering the decrease in quantity of secrete
gastric juice as compared with controls. Rats of an average weight of 200
± 20 grams are employed of which the lower part of the stomach at the
level of the pylorus is tied to collect the gastric juice during the
indicated periods. The preparations are administered orally in the form o

[4] = Acute toxicity (DL50) in the mouse; assay type: in vivo; conditions: iv (Table 1); for LD50: in vivo, read-out: DL50 value
Excerpt: *1 DL50 in the mouse mg/kg iv.
Examples of differences between toxicity (DL50 in
the mouse) by intravenous administration and oral
administration in mg/kg. Variation in therapeutic

gastric secretion [5] = assay: Anti-secretive activity in the rat with lig. pylorus, iv; assay type: in vivo
gastric secretion [6] = assay: Anti-secretive activity in the rat by gastric stimulus, oral; assay type: in vivo; conditions: oral (Table 1); for ED50: read-out: Activity B: anti-secretive activity ED50
Protocol: *3 Anti-secretive activity in the rat by gastric stimulus, ED50 mg/k

[7] = charcoal after two hours, orally (later Table 3)
[8] = oral, Indomethacin 16 mg/kg orally
[9] = po, charcoal after two hours, orally (later Table 3), read-out: Antispastic activity ED50
[10] = rat with lig. pylorus, iv (Table 1), read-out: Activity A: anti-secretive activity ED50
[11] = mouse, vegetable carbon test (Table 3), read-out: Anti-spastic activity ED50
[12] = Rattus norvegicus, iv, compared with anti-spastic activity (Table 3), read-out: Anti-secretive activity ED50
[13] = Rattus norvegicus, iv, read-out: Activity A: anti-secretive activity ED50
[14] = rat with lig. pylorus, iv (Table 1)

## O=C(N[C@@H](Cc1c[nH]c2ccccc12)C(=O)[O-])OCc1ccc(Cl)cc1.[Na+]
Solubility
  Solubility in acetone: Highly soluble
  Solubility in ethanol: Highly soluble
  Solubility in methanol: Highly soluble
  solubility: ~50 mg/mL

## O=C(N[C@@H](Cc1c[nH]c2ccccc12)C(=O)[O-])c1ccc(Cl)cc1.[Na+]
[1]; ip, read-out: Antispastic activity ED50
  ED50: 82 mg/kg
[1]; po, read-out: Antispastic activity ED50
  ED50: 192 mg/kg
Solubility
  Solubility in acetone: Highly soluble
  Solubility in ethanol: Highly soluble
  Solubility in methanol: Highly soluble
  solubility: ~50 mg/mL
[2]
  ED50: 210 mg/kg
Gastric secretion [3]; 2.5 h
  ED50: 118 mg/kg
Gastric secretion [3]; 5 h
  ED50: 141 mg/kg
Gastric secretion [3]; 10 h
  ED50: 147 mg/kg
Gastric secretion [3]; 15 h
  ED50: 410 mg/kg

## [OH][Al]([OH])[OH] [Aluminium hydroxide, reference compound]
[2]; 136mg/kg, oral
  Protective activity: inactive

## O=C(N[C@@H](Cc1c[nH]c2ccccc12)C(=O)O)OCc1ccc([N+](=O)[O-])cc1 [CR 438 - Calcium salt]
[1]; [7]
  Antispastic activity ED50: > 1000 mg/kg
[2]; [8]
  Protective activity ED50: > 1500 mg/kg/os
Gastric secretion [3]; oral, 2.5 hrs, 150 min
  Antisecretive activity (dose which reduces the gastric secretion by 50%): 810 mg/kg
Gastric secretion [3]; oral, 5 hrs, 300 min
  Antisecretive activity (dose which reduces the gastric secretion by 50%): 780 mg/kg
Gastric secretion [3]; oral, 10 hrs, 600 min
  Antisecretive activity (dose which reduces the gastric secretion by 50%): 972 mg/kg

## O=C(N[C@@H](Cc1c[nH]c2ccccc12)C(=O)O)OCc1ccc(Cl)cc1 [CR 449 calcium salt, N-p-chloro-carbobenzoxy-L-tryptophane calcium salt]
Solubility
  Solubility in ethanol: soluble
  Solubility in methanol: soluble
  Solubility in water: Very slightly soluble
[2]; oral, Indomethacin 16 mg/kg orally, calcium salt
  Protective activity ED50: 121 mg/kg/os
Gastric secretion [3]; oral, 2.5 hrs, calcium salt, 150 min
  Antisecretive activity (dose which reduces the gastric secretion by 50%): 142 mg/kg
Gastric secretion [3]; oral, 5 hrs, calcium salt, 300 min
  Antisecretive activity (dose which reduces the gastric secretion by 50%): 112 mg/kg
Gastric secretion [3]; oral, 10 hrs, calcium salt, 600 min
  Antisecretive activity (dose which reduces the gastric secretion by 50%): 110 mg/kg
Gastric secretion [3]; oral, 15 hrs, calcium salt, 900 min
  Antisecretive activity (dose which reduces the gastric secretion by 50%): 106 mg/kg

## O=C(N[C@@H](Cc1c[nH]c2ccccc12)C(=O)O)OCc1ccc(Br)cc1 [CR 451 - Calcium salt]
[1]; [7]
  Antispastic activity ED50: 393 mg/kg
[2]; [8]
  Protective activity ED50: 392 mg/kg/os
Gastric secretion [3]; oral, 2.5 hrs, 150 min
  Antisecretive activity (dose which reduces the gastric secretion by 50%): 233 mg/kg
Gastric secretion [3]; oral, 5 hrs, 300 min
  Antisecretive activity (dose which reduces the gastric secretion by 50%): 220 mg/kg
Gastric secretion [3]; oral, 10 hrs, 600 min
  Antisecretive activity (dose which reduces the gastric secretion by 50%): 337 mg/kg
Gastric secretion [3]; oral, 15 hrs, 900 min
  Antisecretive activity (dose which reduces the gastric secretion by 50%): 580 mg/kg

## O=C(N[C@@H](Cc1c[nH]c2ccccc12)C(=O)O)c1ccc(Cl)cc1 [CR 501 aluminium salt, N-p-chloro-benzoyl-L-tryptophane aluminium salt]
[1]; [7]
  Antispastic activity ED50: 270 mg/kg
Solubility; listed as Example 56
  Solubility in ethanol: Soluble
  Solubility in methanol: Soluble
  Solubility in water: very slightly soluble
[2]; [8]
  Protective activity ED50: 174 mg/kg/os
Gastric secretion [3]; oral, 2.5 hrs, 150 min
  Antisecretive activity (dose which reduces the gastric secretion by 50%): 195 mg/kg
Gastric secretion [3]; oral, 5 hrs, 300 min
  Antisecretive activity (dose which reduces the gastric secretion by 50%): 152 mg/kg
Gastric secretion [3]; oral, 10 hrs, 600 min
  Antisecretive activity (dose which reduces the gastric secretion by 50%): 150 mg/kg
Gastric secretion [3]; oral, 15 hrs, 900 min
  Antisecretive activity (dose which reduces the gastric secretion by 50%): 163 mg/kg

## O=C(N[C@@H](Cc1c[nH]c2ccccc12)C(=O)O)c1ccc(Cl)cc1 [CR 501 magnesium salt, N-p-chloro-benzoyl-L-tryptophane magnesium salt]
[1]; [7]
  Antispastic activity ED50: 278 mg/kg
Solubility; listed as Example 55
  Solubility in ethanol: soluble
  Solubility in methanol: soluble
  Solubility in water: Very slightly soluble
[2]; [8]
  Protective activity ED50: 162 mg/kg/os
Gastric secretion [3]; oral, 2.5 hrs, 150 min
  Antisecretive activity (dose which reduces the gastric secretion by 50%): 230 mg/kg
Gastric secretion [3]; oral, 5 hrs, 300 min
  Antisecretive activity (dose which reduces the gastric secretion by 50%): 180 mg/kg
Gastric secretion [3]; oral, 10 hrs, 600 min
  Antisecretive activity (dose which reduces the gastric secretion by 50%): 146 mg/kg
Gastric secretion [3]; oral, 15 hrs, 900 min
  Antisecretive activity (dose which reduces the gastric secretion by 50%): 135 mg/kg

## Cc1ccc(C(=O)N[C@@H](Cc2c[nH]c3ccccc23)C(=O)O)cc1 [CR 510 - Calcium salt]
[1]; [7]
  Antispastic activity ED50: 725 mg/kg
[2]; [8]
  Protective activity ED50: 390 mg/kg/os
Gastric secretion [3]; oral, 2.5 hrs, 150 min
  Antisecretive activity (dose which reduces the gastric secretion by 50%): 602 mg/kg
Gastric secretion [3]; oral, 5 hrs, 300 min
  Antisecretive activity (dose which reduces the gastric secretion by 50%): 574 mg/kg
Gastric secretion [3]; oral, 10 hrs, 600 min
  Antisecretive activity (dose which reduces the gastric secretion by 50%): 521 mg/kg
Gastric secretion [3]; oral, 15 hrs, 900 min
  Antisecretive activity (dose which reduces the gastric secretion by 50%): 666 mg/kg

## O=C([O-])[O-].[Ca+2] [Calcium carbonate, reference compound]
[2]; 140mg/kg, oral
  Protective activity: inactive

## O=C(N[C@@H](Cc1c[nH]c2ccccc12)C(=O)O)OCc1ccc([N+](=O)[O-])cc1 [Ex.12 (CR438), N-p-nitro-carbobenzoxy-L-tryptophane]
[4]; iv
  LD50: 700 mg/kg
[1]; [9]
  ED50: 870 mg/kg
Gastric secretion [5]; [10]
  ED50: 267 mg/kg
[2]; [8]
  ED50: 990 mg/kg
Gastric secretion [3]; 2.5 h, oral, 2.5 hrs
  ED50: 475 mg/kg
Gastric secretion [3]; 5 h, oral, 5 hrs
  ED50: 560 mg/kg
Gastric secretion [3]; 10 h, oral, 10 hrs
  ED50: 980 mg/kg
Gastric secretion [3]; 15 h, oral, 15 hrs
  ED50: > 1500 mg/kg
Gastric secretion [6]
  ED50: 195 mg/kg

## Nc1ccc(C(=O)N[C@@H](Cc2c[nH]c3ccccc23)C(=O)O)cc1 [Ex.28 (CR504), N-p-amino-benzoyl-L-tryptophane]
[4]
  LD50: 1670 mg/kg
[1]; [9]
  ED50: > 1000 mg/kg
Gastric secretion [5]; [10]
  ED50: 960 mg/kg
[2]; [8]
  ED50: > 1500 mg/kg
Gastric secretion [3]; 2.5 h, oral, 2.5 hrs
  ED50: 1080 mg/kg
Gastric secretion [3]; 5 h, oral, 5 hrs
  ED50: 1090 mg/kg
Gastric secretion [3]; 10 h, oral, 10 hrs
  ED50: 1490 mg/kg
Gastric secretion [3]; 15 h, oral, 15 hrs
  ED50: > 2000 mg/kg
Gastric secretion [6]
  ED50: 205 mg/kg

## O=C(O)Cc1ccc(NC(=O)[C@H](Cc2c[nH]c3ccccc23)NC(=O)c2ccccc2)cc1 [Ex.41 (CR421), N-benzoyl-L-tryptophyl-p-aminophenylacetic acid]
[4]
  LD50: 1000 mg/kg
[1]; [11]
  ED50: 170 mg/kg
[1]
  Ratio 3/2: 2.0
Gastric secretion [5]; [12]
  ED50: 322 mg/kg
Gastric secretion [5]; [10]
  ED50: 322 mg/kg
Gastric secretion [6]
  ED50: 186 mg/kg

## O=C(N[C@@H](Cc1c[nH]c2ccccc12)C(=O)O)c1ccccc1Cl [Ex.50 (CR617), N-o-chlorobenzoyl-L-tryptophane]
[4]
  LD50: 1270 mg/kg
[1]; [11]
  ED50: 300 mg/kg
[1]
  Ratio 3/2: 1
Gastric secretion [5]; [12]
  ED50: 299 mg/kg
Gastric secretion [5]; [10]
  ED50: 299 mg/kg
Gastric secretion [6]
  ED50: 255 mg/kg

## O=C(N[C@@H](Cc1c[nH]c2ccccc12)C(=O)O)OCc1ccccc1Cl [Ex. 3 (CR460), N-o-chloro-carbobenzoxy-L-tryptophane]
[4]; iv
  LD50: 640 mg/kg
[1]; [11]
  ED50: 58 mg/kg
[1]
  Ratio 3/2: 2.0
Gastric secretion [5]; [12]
  ED50: 118 mg/kg
Gastric secretion [5]; [10]
  ED50: 118 mg/kg
Gastric secretion [6]
  ED50: 267 mg/kg

## O=C(N[C@H](Cc1c[nH]c2ccccc12)C(=O)O)OCc1ccc(Cl)cc1 [Ex. 5 (CR630), N-p-chloro-carbobenzoxy-D-tryptophane]
[4]; iv
  LD50: 260 mg/kg
Gastric secretion [5]; [13]
  ED50: 142 mg/kg
Gastric secretion [6]
  ED50: 107 mg/kg

## O=C(N[C@@H](Cc1c[nH]c2ccccc12)C(=O)O)OCc1ccc(I)cc1 [Ex. 7 (CR490), N-p-iodo-carbobenzoxy-L-tryptophane]
[4]; iv
  LD50: 166 mg/kg
Gastric secretion [5]; [13]
  ED50: 75 mg/kg
Gastric secretion [6]
  ED50: 94 mg/kg

## N#Cc1ccc(COC(=O)N[C@@H](Cc2c[nH]c3ccccc23)C(=O)O)cc1 [Ex. 8 (CR496), N-p-cyano-carbobenzoxy-L-tryptophane]
[4]; iv
  LD50: 1070 mg/kg
Gastric secretion [5]; [13]
  ED50: 202 mg/kg
Gastric secretion [6]
  ED50: 340 mg/kg

## N-p-bromobenzoyl-L-tryptophyl-phenylacetic acid [Ex.45 (CR511)]
[4]
  DL50 value: 690 mg/kg
Gastric secretion [5]; [14]
  Activity A: anti-secretive activity ED50: 246 mg/kg
Gastric secretion [6]
  Activity B: anti-secretive activity ED50: 281 mg/k

## N-p-chlorobenzoyl-L-tryptophyl-phenylacetic acid [Ex.46 (CR589)]
[4]
  DL50 value: 295 mg/kg
Gastric secretion [5]; [14]
  Activity A: anti-secretive activity ED50: 189 mg/kg
Gastric secretion [6]
  Activity B: anti-secretive activity ED50: 120 mg/k
